Our source for the IC50 and cytostatic action values is publication PMC7287908, “N-Alkyl-2-[4-(trifluoromethyl)benzoyl]hydrazine-1-carboxamides and Their Analogues: Synthesis and Multitarget Biological Activity” (Molecules, 2020).

Broadly, the IC50 is the concentration at which inhibition is half-maximal. Read a high IC50 as a need for much substance.

The target of data set [1] is T1, BuChE from equine serum (EqBuChE) (Equus caballus, UniProt P81908).
T1 construct: butyrylcholinesterase from equine serum (EqBuChE); purchased Sigma-Aldrich (Prague, Czech Republic); host or cells: equine serum (natural source)
T1 sequence (P81908 whole entry): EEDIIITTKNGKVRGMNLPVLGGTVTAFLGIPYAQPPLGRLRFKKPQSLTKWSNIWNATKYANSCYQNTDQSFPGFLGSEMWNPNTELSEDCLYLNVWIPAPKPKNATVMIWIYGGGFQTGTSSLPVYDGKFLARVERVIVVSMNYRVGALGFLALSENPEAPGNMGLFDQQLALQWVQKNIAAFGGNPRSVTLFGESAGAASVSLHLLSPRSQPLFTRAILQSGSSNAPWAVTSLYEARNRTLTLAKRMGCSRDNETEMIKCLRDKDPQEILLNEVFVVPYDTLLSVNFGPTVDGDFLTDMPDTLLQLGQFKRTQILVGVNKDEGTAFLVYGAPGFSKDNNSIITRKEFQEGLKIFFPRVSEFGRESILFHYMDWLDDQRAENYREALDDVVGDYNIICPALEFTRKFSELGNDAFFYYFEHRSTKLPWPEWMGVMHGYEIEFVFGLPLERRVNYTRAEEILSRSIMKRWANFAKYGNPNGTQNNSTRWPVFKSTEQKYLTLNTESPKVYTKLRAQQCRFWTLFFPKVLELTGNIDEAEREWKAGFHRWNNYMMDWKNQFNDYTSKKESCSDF
Nature of the data set: biochemical. To be noted: IC50 BuChE, mean ± SD, n = three independent experiments. The method, then:
Newly synthesized N-alkyl-2-[4-(trifluoromethyl)benzoyl]hydrazine-1-carboxamides 2a–2q were evaluated for their in vitro potency to inhibit AChE from electric eel (EeAChE) and BuChE from equine serum (EqBuChE) using modified Ellman’s spectrophotometric method. […] The efficacy of inhibitors is expressed as IC50, i.e., the concentration causing 50% inhibition of the enzyme activity. Based on IC50 values for both enzymes, selectivity indexes (SI) as the ratio of IC50 for BuChE/IC50 for AChE to quantify the preference for AChE were calculated (Table 1).
IC50 values were determined using the spectrophotometric Ellman’s method modified according to Zdražilová et al., which is a simple, rapid and direct method to determine the SH and -S-S- group content. This method is widely used for the screening of the efficiency of cholinesterases inhibitors. The enzymatic activity is measured indirectly by quantifying the concentration of the 5-thio-2-nitrobenzoic acid ion formed in the reaction between the thiol reagent 5,5′-dithio-bis(2-nitrobenzoic acid) and thiocholine, a product of acetylthiocholine substrate hydrolysis by cholinesterases.
The enzyme activity in final reaction mixture (2000 µL) was 0.2 U/mL, concentration of acetylthiocholine (or butyrylthiocholine) 40 µM and concentration of 5,5′-dithio-bis(2-nitrobenzoic acid) 0.1 mM for all reactions. The tested compounds were dissolved in DMSO and then diluted in demineralized water to the concentration of 1 mM. […] All measurements were carried in triplicates and the average values of reaction rate (v0-uninhibited reaction, vi-inhibited reaction) were used for construction of the dependence v0/vi vs. concentration of inhibitor. From obtained equation of regression curve, IC50 values were calculated.
Acetylcholinesterase used was obtained from electric eel (Electrophorus electricus L.; EeAChE) and butyrylcholinesterase from equine serum (EqBuChE).

The subject of another data set is MonoMac6 cells. The data set can be described thus: Cytostatic activity, MTT assay. Type of data set: cell-based, human. To be noted: MonoMac6, at a concentration of 100 µM. How it is done: (§1) Since compounds containing trifluoromethyl group has been known for their toxic action on eukaryotic cells and approved as anticancer drugs, we investigated cytostatic properties of the derivatives 2–4 using human hepatocellular carcinoma (HepG2) and monocyte (MonoMac6) cell lines. […] The remaining compounds have no cytostatic effect up to 50 µM. Higher concentrations were not investigated due to solubility problems, i.e., precipitation of crystals. […]
(§2) The cell viability was determined by 3-(4,5-dimethylthiazol-2-yl)-2,5-diphenyltetrazolium bromide (MTT) assay. […] The obtained formazan crystals were dissolved in 100 μL of DMSO and the optical density (OD) of the samples was measured at λ = 540 and 620 nm, respectively, employing an ELISA reader (iEMS Reader, Labsystems, Helsinki, Finland). OD620 values were subtracted from OD540 values and the percent of cytostasis was calculated using the following equation:Cytostatic effect (%) = [1 − (ODtreated/ODcontrol)] × 100 where ODtreated and ODcontrol correspond to the optical densities of the treated and the control cells, respectively). […]
(In general: Tetrazolium dyes change colour on reduction, which living cells bring about.)

In another data set the test system is HepG2 cells. Nature of the data set: Cytostatic activity, MTT assay. Type of data set: cell-based, human. To be noted: HepG2, at a concentration of 100 µM. How it is done:
as §1, §2

Consider `NNC(=O)c1ccc(C(F)(F)F)cc1` [compound 1, 4-(Trifluoromethyl)benzohydrazide], for which, in data set [1], the IC50 was determined as 204 ± 2.69 µM. Further, the cytostatic action result with MonoMac6 cells and with HepG2 cells was “avoided any cytostatic action” each time.
